Reference: paper PMC5017735, “A Novel Peptide Derived from the Fusion Protein Heptad Repeat Inhibits Replication of Subacute Sclerosing Panencephalitis Virus In Vitro and In Vivo” (PLoS ONE, 2016)
Peptide text beside a SMILES is read from it.

What was measured:
SSPE virus = test: Time-of-addition experiments, SSPE virus in Vero cells; type: cell-based, SSPE virus (variant measles virus)
Protocol: Synthetic peptides, M1 and M2EK (10 μM each) were used in time-of-addition experiments. Each peptide was added to Vero cells at three distinct time points: prior to infection (pretreatment with the compound), at the same time as the virus infection (simultaneous infection), or post-infection (post-entry). The SSPE virus was prepared to yield a reproducible number of syncytia in untreated control wells (approximately 50–100/well). In the pretreatment assay, peptide was added to confluent cells and incubated at 37°C for 30 min, and the cell cultures were washed with MEM before viral inoculation. Cells were then challenged with the SSPE virus at 0°C for 30 min. In the simultaneous infection assay, SSPE virus with peptide was inoculated at 0°C for 30 min. After the adsorption, the cell cultures were subsequently washed with MEM, and growth medium containing 0.75% methylcellulose was overlaid on the cell cultures, followed by incubation for 3 days in both pretreatment and simultaneous infection assays. In the post-entry assay, cells were challenged with the SSPE virus at 0°C for 30 min. After adsorption, the cell cultures were subsequently washed with MEM and peptide, which was prepared in growth medium containing 0.75% methylcellulose, was subsequently overlaid on the cell cultures at distinct time points. The starting point when cells were incubated at 0°C for 30 min was defined as t0.

MV Edmonston strain = test: Viral plaque reduction assay, measles virus in Vero cells; type: cell-based; conditions: Vero cells
Protocol: (§1) African green monkey kidney (Vero) cells and Vero cells expressing human SLAM (Vero/SLAM cells) were used in all experiments. The growth medium for Vero cells comprised minimal essential medium (MEM) supplemented with 10% heat-inactivated newborn bovine serum, penicillin G (100 IU/ml), streptomycin (100 μg/ml), and L-glutamine (300 μg/ml). The same growth medium, which was further supplemented with G418 (400 μg/ml), was used for Vero/SLAM cells. Cells were seeded into the wells (22 mm) of 12-well tissue culture plates at 1 × 10^5 cells/well and incubated at 37°C in a 10% CO2 incubator for 3 days, at which time they had just reached confluence. The virus strains used were human MV Edmonston strain and SSPE Yamagata-1 [34], which was originally isolated from the brain of an SSPE patient. The Edmonston strain of MV was used to inoculate Vero/SLAM cells and harvested after freeze–thawing infected cells. The SSPE Yamagata-1 strain was cultured in Vero/SLAM cells, harvested by trypsinization, prepared as an infected cell suspension in the Vero/SLAM cell medium supplemented with 10% dimethyl sulfoxide, and stored at −80°C until use.
(§2) Screening was performed to evaluate the antiviral effects of each synthetic peptide against the MV and SSPE viruses using the viral plaque reduction assay. Based on the results of the peptide screening, the 50% effective concentration (EC50), i.e., the concentration of compounds required to inhibit virus plaque formation by 50%, was also determined. The Human MV Edmonston strain was used to produce cell-free virions, which yielded a reproducible number of syncytia [generally 200–300 plaque-forming units (PFUs)] in the control wells. The SSPE virus was also used to yield a reproducible number of syncytia (generally 70–150 PFU) in control wells. In the peptide screening assay, each synthetic peptide was used at a concentration of 10 μM. IFN-α and enfuvirtide, a peptide fusion inhibitor of HIV-1, were used as controls at a concentration of 250 IU/ml and 10 μM, respectively.

SSPE Yamagata-1 strain [1] = test: Animal survival experiment, SSPE virus-infected nude mouse model; type: in vivo, BALB/cAJcl-nu/nu mice; conditions: SSPE virus 250 PFU intracranial; peptide 100 μM intracranial at 0, 6 and 24 h; n = 6; control group 0%
Protocol: Based on a previous report, but with slight modifications, 3-week-old female BALB/cAJcl-nu/nu mice (CLEA Japan Inc., Tokyo, Japan) were used in the animal experiments. Mice were divided in four groups (n = 6 for each cage) and housed with free access to both water and food and monitored daily. The mice were SSPE virus-infected or mock-infected (MEM alone) intracranially. An SSPE virus-infected cell suspension containing 250 PFU/ 30 μl (100% lethal dose) was inoculated into the subarachnoid space of nude mice using a 27-gauge double needle at a depth of 2 mm. Each compound was prepared at a concentration of 100 μM and was injected intracranially at 0 (mixed with viruses), 6, and 24 h after the initial virus inoculation. All injections were performed under inhalational anesthesia with isoflurane. Each mouse was checked for neurological symptoms and weighed daily. The ethical endpoint was defined as <75% of their maximum weight because most mice would die within 24 h. On attaining this endpoint, the mice were sacrificed by cervical dislocation under inhalational anesthesia with isoflurane. In this experiment, five mice died of natural causes before the ethical endpoint; however, all mice had neurological symptoms and 9.5%, 13.2%,14.5%, 15.8%, 16.4% weight loss (one each) relative to their maximum weight. […]

SSPE Yamagata-1 strain [2] = test: Viral plaque reduction assay, SSPE virus in Vero cells; type: cell-based, SSPE virus (variant measles virus)
Protocol: as §1, §2

SSPE Yamagata-1 strain [3] = test: Viral RNA quantification in whole brain of SSPE virus-infected nude mice; type: in vivo, BALB/cAJcl-nu/nu mice; conditions: day 14 post-infection; intracranial peptide; n = 5 per group; P < 0.05
Protocol: Mice were divided in three groups (n = 5 for each cage) and housed with free access to both water and food and monitored daily. Mice were infected with SSPE virus intracranially in the same as animal survival experiments. Euthanasia was performed by cervical dislocation under isoflurane anesthesia on day 14 post-infection. The brain of each mouse was immediately harvested and mechanically homogenized with 2 ml Vero/SLAM cell growth medium using a PRO200 handheld or post-mounted homogenizer (PRO Scientific Inc., CT, USA). The homogenized brains were stored at −80°C. Viral RNA was extracted using ISOGEN-LS, and cDNA was synthesized using a reverse transcription kit (PrimeScript RT-reagent kit). MV RNA was quantified using a TaqMan real-time polymerase chain reaction assay, as previously described. The primer and probe were designed based on the MV Edmonston strain N gene, as previously reported. PCR amplification was performed using a 7300 Real-Time PCR system (Applied Biosystem). The control plasmid was produced by Dragon Genomics Center (Takara Bio, Mie, Japan) based on the MV Edmonston strain N gene (position 1321–1500).

Vero/SLAM cells = test: Methyl tetrazolium cytotoxicity assay, Vero/SLAM cells; type: cell-based, African green monkey; conditions: confluent Vero/SLAM cells, 24 h, 37°C
Protocol: (§3) Peptide cytotoxicity was determined using the methyl tetrazolium assay. Five-fold serial dilutions of peptides were added to confluent Vero or Vero/SLAM cells. Cells were then incubated at 37°C for 24 h, and the number of viable cells was determined using 3-(4,5-dimethyllthiazol-2-yl)-2,5-diphenylterazolium bromide (Sigma–Aldrich, Tokyo, Japan). The 50% cytotoxic concentration (CC50), which was defined as the concentration required to reduce the cell viability by 50% relative to that of untreated controls, was determined. The selectivity index (SI) was defined as the ratio of the CC50 relative to the EC50 value.

Vero cells = test: Methyl tetrazolium cytotoxicity assay, Vero cells; type: cell-based, African green monkey; conditions: confluent Vero cells, 24 h, 37°C
Protocol: as §3

SSPE Yamagata-1 strain [4] = test: Viral plaque reduction assay, SSPE virus in Vero/SLAM cells; type: cell-based, SSPE virus (variant measles virus)
Protocol: as §1, §2

[5] = In vivo toxicity, mice administered peptides alone; set-up: species or system BALB/cAJcl-nu/nu mice; conditions: peptide 100 μM intracranial, no virus infection
Protocol: Based on a previous report, but with slight modifications, 3-week-old female BALB/cAJcl-nu/nu mice (CLEA Japan Inc., Tokyo, Japan) were used in the animal experiments. Mice were divided in four groups (n = 6 for each cage) and housed with free access to both water and food and monitored daily. The mice were SSPE virus-infected or mock-infected (MEM alone) intracranially. An SSPE virus-infected cell suspension containing 250 PFU/ 30 μl (100% lethal dose) was inoculated into the subarachnoid space of nude mice using a 27-gauge double needle at a depth of 2 mm. Each compound was prepared at a concentration of 100 μM and was injected intracranially at 0 (mixed with viruses), 6, and 24 h after the initial virus inoculation. All injections were performed under inhalational anesthesia with isoflurane. Each mouse was checked for neurological symptoms and weighed daily. The ethical endpoint was defined as <75% of their maximum weight because most mice would die within 24 h. On attaining this endpoint, the mice were sacrificed by cervical dislocation under inhalational anesthesia with isoflurane. In this experiment, five mice died of natural causes before the ethical endpoint; however, all mice had neurological symptoms and 9.5%, 13.2%,14.5%, 15.8%, 16.4% weight loss (one each) relative to their maximum weight. This study was approved by the control of the Animal Research Committee in accordance with the Guidelines on Animal Experiments in Fukushima Medical University and the Rules for the Protection and Care of Animals (approval number: 23038).

[6] = selectivity index, ratio of CC50 relative to EC50

CC[C@H](C)[C@H](NC(=O)[C@H](CCC(=O)O)NC(=O)[C@H](CCC(=O)O)NC(=O)[C@H](CO)NC(=O)[C@H](CCCCN)NC(=O)[C@H](CCCCN)NC(=O)[C@H](CC(C)C)NC(=O)[C@H](CC(C)C)NC(=O)[C@H](CCC(=O)O)NC(=O)[C@H](CCC(=O)O)NC(=O)[C@H](C)NC(=O)[C@H](CCCCN)NC(=O)[C@H](CCCCN)NC(=O)[C@H](CC(C)C)NC(=O)[C@H](CCCCN)NC(=O)[C@H](CCC(=O)O)NC(=O)[C@H](CCC(=O)O)NC(=O)[C@H](C)NC(=O)[C@H](CCCCN)NC(=O)[C@H](CCCCN)NC(=O)[C@H](CC(C)C)NC(=O)[C@H](CC(N)=O)NC(=O)[C@H](CCC(=O)O)NC(=O)[C@H](CCC(=O)O)NC(=O)[C@@H](NC(C)=O)C(C)C)C(=O)N[C@@H](CC(C)C)C(=O)N[C@@H](CCCCN)C(=O)N[C@@H](CCCCN)C(=O)N[C@@H](CCSC)C(=O)N[C@@H](CCC(=O)O)C(=O)N[C@@H](CCC(=O)O)C(=O)N[C@@H](CC(C)C)C(=O)N[C@@H](CO)C(=O)N[C@@H](CCCCN)C(=O)N[C@@H](CCCCN)C(N)=O [Peptide M2EK] (Ac-VEENLKKAEEKLKKAEELLKKSEEILKKMEELSKK-NH2)
viral inhibitory effect, peptide added post-infection (post-entry) (SSPE virus; peptide 10 μM overlaid at distinct time points after adsorption): observed in a time-dependent manner, particularly within 24 h
viral plaque numbers, peptide added before viral adsorption or at the same time as virus inoculation (SSPE virus; peptide 10 μM, pretreatment 37°C 30 min or simultaneous with SSPE virus 0°C 30 min, compared with control): no reduction in viral plaque numbers
EC50 (MV Edmonston strain; plaque reduction, MV Edmonston strain, mean ± SD): 100 ± 70 nM
SI, measles virus (Vero cells) (MV Edmonston strain; [6]): >989
survival rate (SSPE Yamagata-1 strain [1]): 67%
inhibition of plaque formation compared with the control group, SSPE Yamagata-1 strain (peptide screening) (SSPE Yamagata-1 strain [2]; peptide 10 μM, Vero cells and Vero/SLAM cells (Fig 2C), duplicate, at least twice independently): > 97%
EC50 (SSPE Yamagata-1 strain [2]; plaque reduction, SSPE Yamagata-1 strain, Vero cells, mean ± SD): 50 ± 30 nM
SI, SSPE virus (Vero cells) (SSPE Yamagata-1 strain [2]; selectivity index, ratio of CC50 relative to EC50, Vero cells): >2041
viral RNA copies in whole brain, lower than in M1-treated mice (SSPE Yamagata-1 strain [3]): approximately four
viral RNA copies in whole brain, lower than in enfuvirtide-treated mice (SSPE Yamagata-1 strain [3]): approximately three
CC50, SSPE virus (Vero/SLAM cells) (Vero/SLAM cells): >100000 nM
CC50, SSPE virus (Vero cells) (Vero cells): >100000 nM
CC50, measles virus (Vero cells) (Vero cells): >100000 nM
EC50 (SSPE Yamagata-1 strain [4]; plaque reduction, SSPE Yamagata-1 strain, mean ± SD): 20 ± 10 nM
SI, SSPE virus (Vero/SLAM cells) (SSPE Yamagata-1 strain [4]; [6]): >6579
survival of mice administered with peptides alone, with no symptoms [5]: > 45 days
